US7897637B2, “Methods of using flavonoids to enhance memory” (The Salk Institute for Biological Studies, priority 2006, dated 2011)
Entries after “also recorded” stand apart in the source; their conditions may differ. Read-outs that look alike come from different tables or passages of the source.

Key:
HT22 cells = assay: Protection of HT22 cells from oxidative glutamate toxicity (MTT assay); format: cell-based, mouse; settings: for effect of higher levels of BSO on protection: 5 mM glutamate + 1 mM BSO; for EC50 / Emax: 5 mM glutamate, MTT assay; for EC50: read-out: EC50 (μM), protection from oxidative-stress induced death; for Emax: HT-22, read-out: Maximal Efficacy, protection from oxidative-stress induced death
Text: Fisetin is effective at protecting nerve cells from oxidative stress-induced death (Ishige et al., Free Radic. Biol. Med., 30:433-446, 2001). This Example illustrates the structure-activity relationship between fisetin derivatives and neuroprotection in a model of oxidative glutamate toxicity using mouse HT22 cells. This pathway of programmed cell death is initiated by the addition of glutamate to the extracellular medium. Glutamate inhibits the uptake of cystine which is required for glutathione (GSH) biosynthesis, resulting in the depletion of GSH in neurons (for review see Tan et al., Curr. Top. Med. Chem., 1:497-506, 2001). Subsequently, this decrease in cellular GSH results in the production of reactive oxygen species (ROS) by mitochondria. The ROS accumulation then causes Ca^+2 influx from the extracellular medium which leads to cell death.
HT22 cells were untreated (Ct) or treated with 10 μM fisetin, 25 μM 3,3′-DHF, 25 μM 3,4′-DHF, 2.5 μM 3′,4′-DHF, 2.5 μM 3,3′,4′-THF 25 μM 3,7,3′-THF, 25 μM 3,7,4′-THF or 10 μM 7,3′,4′-THF in the presence of 5 mM glutamate±50 μM PD98059. Twenty four (24) hours later cell survival was measured by the MTT assay.
HT22 cells were untreated (Ct) or treated with 10 μM fisetin, 25 μM 3,3′-DHF. […] Protection by all of the other flavonoids was unaffected by BSO.
Cell viability was determined by a modified version of the 3-(4,5-dimethylthiazol-2-yl)-2,5-diphenyl tetrazolium bromide (MTT) assay based on the standard procedure (Hansen et al., J. Immunol. Meth., 119:203-10, 1989). Briefly, cells were seeded onto 96-well microtiter plates at a density of 5×10^3 cells per well. The next day, the medium was replaced with DMEM supplemented with 7.5% DFCS and the cells were treated with the different flavonoids alone or in the presence of 5 mM glutamate. Twenty four hours later, the medium in each well was aspirated and replaced with fresh medium containing 2.5 μg/ml MTT. After 4 hours of incubation at 37° C., cells were solubilized with 100 μl of a solution containing 50% dimethylformamide and 20% SDS (pH 4.7). The absorbance at 570 nm was measured on the following day with a microplate reader (Molecular Devices). Results obtained from the MTT assay correlated directly with the extent of cell death as confirmed visually. Controls employing wells without cells were used to determine the effects of the agents upon the assay chemistry.

Male C57Bl/6J mice = assay: Object recognition task; format: in vivo; settings: 60 minutes prior to training, vs vehicle
Procedure: The effect of fisetin, 3,3′,4′-THF, and apigenin (5,7,4′-THF) on memory was tested in mice using an object recognition task (Ennaceur and Delacour, Behav. Brain Res., 31:47-59, 1988). Among the alternatives available for testing memory, this assay has proven very effective for measuring CREB-dependent functions (Prickaerts et al., Neurosci., 113:351-61, 2002; Bourtchouladze et al., Proc. Natl. Acad. Sci. USA, 100:10518-22, 2003). In this test, mice are presented with two identical objects during the training period which they explore for a fixed time period. To test for memory, mice are presented one day later with two different objects, one of which was presented previously during the training and is thus familiar to the mice, and the other that is novel. The better a mouse remembers the familiar object, the more time it will spend exploring the novel object. To test the effects of fisetin, 3,3′,4′-THF, or apigenin (5,7,4′-THF) in this memory task, the respective compound was administered orally to the mice before the start of the training period. Rolipram, a phosphodiesterase inhibitor that potentiates memory in this assay (Bourtchouladze et al., Proc. Natl. Acad. Sci. USA, 100:10518-22, 2003), requires intraperitoneal injection and was used as a positive control.
Male C57Bl/6J mice (Jackson Laboratories) were used and the testing was done by PsychoGenics (Tarrytown, N.Y.). All mice were acclimated to the colony room for at least 2 weeks prior to testing and were tested at an average age of 8 weeks. Mice were randomly assigned across treatment groups with 10 mice in each group. For each dose tested, a 10× solution of fisetin was prepared in 95% ethanol and then diluted with 4 volumes polyethylene glycol 660 hydroxystearate (Solut HS15 from BASF) and 5 volumes phosphate buffered saline. The vehicle was contained the identical ratios of ethanol, Solut HS15 and phosphate buffered saline. All were administered orally 60 minutes prior to training at a volume of 10 ml/kg body weight. Rolipram was dissolved in 10% DMSO and administered intraperitoneally 20 minutes prior to training. The test was performed as previously described by Bourtchouladze et al. (Proc. Natl. Acad. Sci. USA, 100:10518-22, 2003). Briefly, on Day 1 mice were habituated to a circular open field arena for one hour in cage groups of four. Twenty-four (24) hours later, individual mice were placed back in the same arena which now contained two identical objects for a 15 minutes training trial. […] Each animal's test trial was recorded and the first 10 minutes of each session were scored. […] Data were analyzed by a one-way ANOVA followed by post-hoc comparisons with Fisher's test. […]

GSH = assay: Total cellular GSH levels in HT22 cells; format: cell-based, mouse; settings: 8 hours; for GSH levels in the presence of oxidative stress: 5 mM glutamate
Procedure: The effects of fisetin derivatives on cellular GSH levels was then determined. HT22 cells were untreated (Ct) or treated with 10 μM fisetin, 25 μM 3,3′-DHF, 25 μM 3,4′-DHF, 2.5 μM 3′,4′-DHF, 2.5 μM 3,3′,4′-THF, 25 μM 3,7,3′-THF, 25 μM 3,7,4′-THF or 10 μM 7,3′,4′-THF alone or in the presence of 5 mM glutamate. After 8 hours cellular levels of total GSH were determined as described in Example 4. The GSH level of the control sample (31.5±10 nmoles/mg protein) was taken as 100%.
Total intracellular GSH/GSSG was determined using whole cell lysates from untreated, glutamate treated, flavonoid treated and glutamate plus flavonoid treated cells as described (Maher and Hanneken, Invest. Opthalmol. Vis. Sci., 46:749-57, 2005, herein incorporated by reference as to the method) and normalized to total cellular protein.

[1] = Mus musculus, HT-22, 24 h, HT22 cells, 24 hours
[2] = Mus musculus, HT22 cells, 24 hours

Structure (SMILES)	effect of higher levels of BSO on protection (HT22 cells; 24 hours, MTT)	EC50 (HT22 cells; [1]) [µM]	Emax (HT22 cells; [2]) [%]	object recognition (Male C57Bl/6J mice; 10 mg/kg oral)	object recognition (Male C57Bl/6J mice; 25 mg/kg oral)	protection from oxidative stress-induced death (HT22 cells; HT22 cells, glutamate)	GSH levels in the presence of oxidative stress (GSH)	basal levels of GSH (GSH; flavonoid alone)	effect of low levels of BSO on protection (HT22 cells; 5 mM glutamate + 50 μM BSO, 24 hours, MTT)	EC50 (HT22 cells; HT22 cells, 24 hours) [µM]	protection from oxidative stress-induced death (HT22 cells; at 2.5 μM) [%]
O=c1c(O)c(-c2ccc(O)c(O)c2)oc2cc(O)ccc12 [fisetin, 3,3′,4′,7-tetrahydroxyflavone]	reduced protection	5	> 90	significant effects	significant effects	–	–	–	–	–	–
O=c1cc(-c2ccc(O)c(O)c2)oc2ccccc12 [3′,4′-DHF, 3′,4′-dihydroxyflavone]	reduced protection	0.9	> 90	–	–	more effective than fisetin; also recorded: equal to or more effective than fisetin	could not maintain GSH levels	raised the basal levels of GSH	–	–	–
O=c1c(O)c(-c2ccc(O)c(O)c2)oc2ccccc12 [3,3′,4′-THF, 3,3′,4′-trihydroxyflavone]	–	1	> 90	–	significantly increased object recognition	equal to or more effective than fisetin	able to maintain GSH levels	–	significantly reduced protection	0.75	> 85
